Assay results as given in patent US11046699B2, “Pyrazolo-pyrimidin-amino-cycloalkyl compounds and their therapeutic uses” (RAPT THERAPEUTICS, INC., priority 2018, dated 2021).
Where a name gives a salt, the structure may show the parent alone.

Target: GCN2 (Homo sapiens, UniProt Q9P2K8)
Test: GCN2 enzymatic endpoint assay: phosphorylation of GFP-eIF2α measured by TR-FRET (Lanthascreen)
Format: biochemical
Settings: GCN2 biochemical IC50; 4 nM GCN2, 2 μM ATP, 80 nM GFP-eIF2α, 90 min RT; read-out: GCN2 activity
Outline: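 Endpoint kinase reaction with 2 μM ATP and 80 nM GFP-labelled eIF2α substrate, run at room temperature for 90 min, then stopped with EDTA. Phospho-substrate detected by terbium-antibody TR-FRET, activity taken as the 520/495 nm emission ratio.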

GCN2, sequence (Q9P2K8 whole entry): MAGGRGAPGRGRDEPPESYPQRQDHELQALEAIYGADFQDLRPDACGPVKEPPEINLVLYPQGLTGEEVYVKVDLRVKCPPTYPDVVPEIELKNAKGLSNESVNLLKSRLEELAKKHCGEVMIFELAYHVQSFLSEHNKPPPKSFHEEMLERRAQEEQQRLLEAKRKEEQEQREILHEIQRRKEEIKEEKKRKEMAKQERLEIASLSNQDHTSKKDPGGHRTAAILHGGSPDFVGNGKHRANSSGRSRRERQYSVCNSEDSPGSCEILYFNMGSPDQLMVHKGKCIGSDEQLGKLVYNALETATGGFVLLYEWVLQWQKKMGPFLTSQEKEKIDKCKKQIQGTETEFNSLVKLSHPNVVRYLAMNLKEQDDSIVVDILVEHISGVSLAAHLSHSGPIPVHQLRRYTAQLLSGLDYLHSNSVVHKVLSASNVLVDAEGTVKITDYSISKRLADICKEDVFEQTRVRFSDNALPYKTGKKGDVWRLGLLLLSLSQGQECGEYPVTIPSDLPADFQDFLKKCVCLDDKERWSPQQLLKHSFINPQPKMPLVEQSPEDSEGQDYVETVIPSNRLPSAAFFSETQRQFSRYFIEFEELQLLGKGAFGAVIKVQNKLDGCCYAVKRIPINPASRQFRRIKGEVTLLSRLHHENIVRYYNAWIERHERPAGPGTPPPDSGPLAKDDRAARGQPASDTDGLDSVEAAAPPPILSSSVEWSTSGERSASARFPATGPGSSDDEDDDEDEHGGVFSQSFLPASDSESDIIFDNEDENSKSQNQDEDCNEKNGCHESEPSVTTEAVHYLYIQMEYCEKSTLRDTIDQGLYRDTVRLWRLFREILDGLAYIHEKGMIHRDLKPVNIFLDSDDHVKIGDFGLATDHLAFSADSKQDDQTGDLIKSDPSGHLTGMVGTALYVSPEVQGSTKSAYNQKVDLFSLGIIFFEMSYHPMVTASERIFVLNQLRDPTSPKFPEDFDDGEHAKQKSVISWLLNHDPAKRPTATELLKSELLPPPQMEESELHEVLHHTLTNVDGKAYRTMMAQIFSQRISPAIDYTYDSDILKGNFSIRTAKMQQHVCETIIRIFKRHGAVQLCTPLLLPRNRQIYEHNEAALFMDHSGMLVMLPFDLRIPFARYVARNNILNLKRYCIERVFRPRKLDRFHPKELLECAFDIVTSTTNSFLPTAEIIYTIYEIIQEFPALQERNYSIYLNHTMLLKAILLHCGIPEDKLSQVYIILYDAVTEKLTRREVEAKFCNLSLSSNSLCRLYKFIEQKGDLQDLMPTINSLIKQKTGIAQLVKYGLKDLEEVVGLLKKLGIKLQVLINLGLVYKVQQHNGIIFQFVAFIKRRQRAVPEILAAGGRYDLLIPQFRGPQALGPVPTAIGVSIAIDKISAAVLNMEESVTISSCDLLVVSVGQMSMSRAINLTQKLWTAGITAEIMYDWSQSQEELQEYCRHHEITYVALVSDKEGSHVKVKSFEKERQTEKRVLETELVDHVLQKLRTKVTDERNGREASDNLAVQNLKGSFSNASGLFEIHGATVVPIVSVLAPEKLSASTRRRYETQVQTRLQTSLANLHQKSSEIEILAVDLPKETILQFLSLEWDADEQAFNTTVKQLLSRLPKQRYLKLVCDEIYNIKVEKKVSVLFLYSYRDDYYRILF

Row | IC50 | Compound
1 | < 25 nM | CNC(=O)[C@]1(C)CC[C@@H](Nc2ncc3c(Br)nn(-c4ccc(Cl)c([C@H](C)N)c4)c3n2)C1 [Example 65, (1R,3R)-3-((1-(3-((S)-1-aminoethyl)-4-chlorophenyl)-3-bromo-1H-pyrazolo[3,4-d]pyrimidin-6-yl)amino)-N,1-dimethylcyclopentane-1-carboxamide]
2 | 25 to 200 nM | CNC(=O)C[C@H]1C[C@H](Nc2ncc3c(Br)nn(-c4cc(Cl)cc([C@H](C)N)c4)c3n2)C1 [Example 71, 2-((1S,3r)-3-((1-(3-((S)-1-aminoethyl)-5-chlorophenyl)-3-bromo-1H-pyrazolo[3,4-d]pyrimidin-6-yl)amino)cyclobutyl)-N-methylacetamide]
3 | 25 to 200 nM | O=C1NCC[C@]12CC[C@@H](Nc1ncc3c(Br)nn(-c4cc(F)c5ncccc5c4)c3n1)C2 [Example 48, (5S,7R)-7-((3-bromo-1-(8-fluoroquinolin-6-yl)-1H-pyrazolo[3,4-d]pyrimidin-6-yl)amino)-2-azaspiro[4.4]nonan-1-one hydrochloride]
4 | < 25 nM | CNC(=O)[C@]1(C)CC[C@@H](Nc2ncc3c(Br)nn(-c4cc(CCO)c5ncccc5c4)c3n2)C1 [Example 29, (1R,3R)-3-((3-bromo-1-(8-(2-hydroxyethyl)quinolin-6-yl)-1H-pyrazolo[3,4-d]pyrimidin-6-yl)amino)-N,1-dimethylcyclopentane-1-carboxamide hydrochloride]
5 | 25 to 200 nM | CNC(=O)[C@]1(C)CC[C@@H](Nc2ncc3c(Br)nn(-c4ccc5nc(N6CCC6)ncc5c4)c3n2)C1 [Example 73, (1R,3R)-3-((1-(2-(azetidin-1-yl)quinazolin-6-yl)-3-bromo-1H-pyrazolo[3,4-d]pyrimidin-6-yl)amino)-N,1-dimethylcyclopentane-1-carboxamide]

Same assay, conditions: tested as described in Example 77; compound and/or hydrochloride, dihydrochloride or trifluoroacetic acid salt; read-out: IC 50 Activity

Row | Compound | IC50
6 | CNC(=O)[C@]1(C)CC[C@@H](Nc2ncc3c(Br)nn(-c4cccc(NC(=O)c5cscn5)c4)c3n2)C1 [N-[3-[3-bromo-6-[[(1R,3R)-3-methyl-3-(methylcarbamoyl)cyclopentyl]amino]pyrazolo[3,4-d]pyrimidin-1-yl]phenyl] thiazole-4-carboxamide] | 25 to 200 nM
7 | C[C@@H]1CN(C(=O)[C@@H]2CC[C@@H](Nc3ncc4c(Br)nn(-c5ccc6ncccc6c5)c4n3)C2)C[C@H](C)O1 [((1R,3R)-3-((3-bromo-1-(quinolin-6-yl)-1H-pyrazolo[3,4-d]pyrimidin-6-yl)amino)cyclopentyl)((2S,6R)-2,6-dimethylmorpholino) methanone] | 200 to 500 nM
8 | CNC(=O)[C@]1(C)CC[C@@H](Nc2ncc3c(Br)nn(-c4ccc(-c5nnc(C)o5)c(CCN)c4)c3n2)C1 [(1R,3R)-3-[[1-[3-(2-aminoethyl)-4-(5-methyl-1,3,4-oxadiazol-2-yl)phenyl]-3-bromopyrazolo[3,4-d]pyrimidin-6-yl]amino]-N,1-dimethyl-cyclopentane-carboxamide] | 25 to 200 nM
9 | CC(CNC(=O)[C@@H]1CC[C@@H](Nc2ncc3c(Br)nn(-c4ccc5ncccc5c4)c3n2)C1)N1CCCC1 (stereo partly drawn) [(1R,3R)-3-((3-bromo-1-(quinolin-6-yl)-1H-pyrazolo[3,4-d]pyrimidin-6-yl)amino)-N-(2-(pyrrolidin-1-yl)propyl)cyclopentane-1-carboxamide] | 25 to 200 nM
10 | CNC(=O)C1(C)CC[C@@H](Nc2ncc3c(Br)nn(-c4cc(F)cc(CO)c4)c3n2)C1 (stereo partly drawn) [(3R)-3-[[3-bromo-1-[3-fluoro-5-(hydroxymethyl)phenyl]pyrazolo[3,4-d]pyrimidin-6-yl]amino]-N,1-dimethyl-cyclopentanecarboxamide] | 25 to 200 nM
11 | CNC(=O)[C@]1(C)CC[C@@H](Nc2ncc3c(Br)nn(-c4cc(C#N)cc(CNS(C)(=O)=O)c4)c3n2)C1 | 25 to 200 nM
12 | CNC(=O)[C@@H]1CC[C@@H](Nc2ncc3c(Br)nn(-c4cc(F)c5nc(C)ccc5c4)c3n2)C1 [(1R,3R)-3-((3-bromo-1-(8-fluoro-2-methyl-quinolin-6-yl)-1H-pyrazolo[3,4-d]pyrimidin-6-yl)amino)-N-methylcyclopentane-1-carboxamide] | 25 to 200 nM
13 | CNC(=O)[C@@]1(C)CC[C@@H](Nc2ncc3c(Br)nn(-c4ccc(OCCO)cc4)c3n2)C1 [(1S,3R)-3-[[3-bromo-1-[4-(2-hydroxy-ethoxy)phenyl]pyrazolo[3,4-d]pyrimidin-6-yl]amino]-N,1-dimethyl-cyclopentane-carboxamide] | 25 to 200 nM
14 | Cc1ccc2cc(-n3nc(Br)c4cnc(N[C@@H]5CC[C@@H](P(C)(C)=O)C5)nc43)cc(F)c2n1 [3-bromo-N-[(1R,3R)-3-dimethylphosphoryl-cyclopentyl]-1-(8-fluoro-2-methyl-6-quinolyl) pyrazolo[3,4-d]pyrimidin-6-amine] | 25 to 200 nM
15 | CNC(=O)[C@]1(C)CC[C@@H](Nc2ncc3c(Br)nn(-c4ccc(-c5cnc(C)o5)cc4)c3n2)C1 [(1R,3R)-3-[[3-bromo-1-[4-(2-methyloxazol-5-yl)phenyl]pyrazolo[3,4-d]pyrimidin-6-yl]amino]-N,1-dimethyl-cyclopentane-carboxamide] | 25 to 200 nM
16 | CNC(=O)CC1CC(Nc2ncc3c(Br)nn(-c4cc(CCN)c5ccccc5c4)c3n2)C1 (stereo not shown) [2-[3-[[1-[4-(2-aminoethyl)-2-naphthyl]-3-bromo-pyrazolo[3,4-d]pyrimidin-6-yl]amino]cyclobutyl]-N-methyl-acetamide; 2,2,2-trifluoroacetic acid] | 25 to 200 nM
17 | C[C@@]1(CO)CC[C@@H](Nc2ncc3c(Br)nn(-c4cc(CCN)c5ncccc5c4)c3n2)C1 | 25 to 200 nM
18 | C[C@@H]1CN(C(=O)[C@@H]2CC[C@@H](Nc3ncc4c(Br)nn(-c5ccc6ncccc6c5)c4n3)C2)C[C@@H](C)O1 [((1R,3R)-3-((3-bromo-1-(quinolin-6-yl)-1H-pyrazolo[3,4-d]pyrimidin-6-yl)amino)cyclo-pentyl)((2R,6R)-2,6-dimethylmorpholino) methanone] | 25 to 200 nM
19 | COCCNC(=O)[C@@H]1CC[C@@H](Nc2ncc3c(Br)nn(-c4cc(F)c5ncccc5c4)c3n2)C1 [(1R,3R)-3-((3-bromo-1-(8-fluoroquinolin-6-yl)-1H-pyrazolo[3,4-d]pyrimidin-6-yl)amino)-N-(2-methoxyethyl)cyclopentane-1-carboxamide] | 25 to 200 nM
20 | CNC(=O)[C@@H]1CC[C@@H](Nc2ncc3c(Br)nn(-c4cc(F)c5nc(C)c(F)cc5c4)c3n2)C1 [(1R,3R)-3-((3-bromo-1-(3,8-difluoro-2-methyl-quinolin-6-yl)-1H-pyrazolo[3,4-d]pyrimidin-6-yl)amino)-N-methylcyclopentane-1-carboxamide] | 25 to 200 nM
21 | COCCNC(=O)[C@@H]1CC[C@@H](Nc2ncc3c(Br)nn(-c4ccc5cnn(C)c5c4)c3n2)C1 [(1R,3R)-3-((3-bromo-1-(1-methyl-1H-indazol-6-yl)-1H-pyrazolo[3,4-d]pyrimidin-6-yl)amino)-N-(2-methoxyethyl)cyclopentane-1-carboxamide] | 200 to 500 nM

The remaining lines, values ahead:

Row | IC50 | Compound
22 | 25 to 200 nM | C[C@]1(C(=O)N2CNC(=O)C2)CC[C@@H](Nc2ncc3c(Br)nn(-c4cc(F)c5ncccc5c4)c3n2)C1 [1-[(1S,3R)-3-[[3-bromo-1-(8-fluoro-6-quinolyl)pyrazolo[3,4-d]pyrimidin-6-yl]amino]-1-methyl-cyclopentanecarbonyl] imidazolidin-4-one]
23 | < 25 nM | CNC(=O)[C@]1(C)CC[C@@H](Nc2ncc3c(Br)nn(-c4cc(Cl)cc(CCO)c4)c3n2)C1 [(1R,3R)-3-[[3-bromo-1-[3-chloro-5-(2-hydroxyethyl)phenyl]pyrazolo [3,4-d]pyrimidin-6-yl]amino]-N,1-dimethyl-cyclopentanecarboxamide]
24 | < 25 nM | CNC(=O)[C@]1(C)CC[C@@H](Nc2ncc3c(Br)nn(-c4cc(OCC#N)c5c(c4)OCC(=O)N5C)c3n2)C1 [(1R,3R)-3-[[3-bromo-1-[5-(cyano-methoxy)-4-methyl-3-oxo-1,4-benzoxazin-7-yl]pyrazolo[3,4-d]pyrimidin-6-yl]amino]-N,1-dimethyl-cyclopentane-carboxamide]
25 | 25 to 200 nM | CNC(=O)C1(C#N)CC[C@@H](Nc2ncc3c(Br)nn(-c4cc(Cl)cc([C@H](C)N)c4)c3n2)C1 (stereo partly drawn) [(3R)-3-[[1-[3-[(1S)-1-aminoethyl]-5-chloro-phenyl]-3-bromo-pyrazolo[3,4-d]pyrimidin-6-yl]amino]-1-cyano-N-methyl-cyclo-pentanecarboxamide; 2,2,2-trifluoroacetic acid]
26 | < 25 nM | CNC(=O)[C@]1(C)CC[C@@H](Nc2ncc3c(Br)nn(-c4ccc(-c5ncco5)c(NC(=O)[C@@H]5CCNC5)c4)c3n2)C1 [(3R)-N-[5-[3-bromo-6-[[(1R,3R)-3-methyl-3-(methylcarbamoyl)cyclopentyl]amino]pyrazolo[3,4-d]pyrimidin-1-yl]-2-oxazol-2-yl-phenyl]pyrrolidine-3-carboxamide]
27 | 25 to 200 nM | CNCCc1cc(-n2nc(Br)c3cnc(N[C@@H]4CC[C@@](C)(C(=O)NC)C4)nc32)ccc1-c1ncco1 [(1R,3R)-3-[[3-bromo-1-[3-[2-(methylamino)ethyl]-4-oxazol-2-yl-phenyl]pyrazolo[3,4-d]pyrimidin-6-yl]amino]-N,1-dimethyl-cyclopentanecarboxamide]
28 | 25 to 200 nM | O=C1OCC[C@@]12CC[C@@H](Nc1ncc3c(Br)nn(-c4cc(F)c5ncccc5c4)c3n1)C2 [(5S,8R)-8-[[3-bromo-1-(8-fluoro-6-quinolyl)pyrazolo[3,4-d]pyrimidin-6-yl]amino]-2-oxaspiro[4.4]nonan-1-one]
29 | 25 to 200 nM | O=C1CN(C(=O)[C@@H]2CC[C@@H](Nc3ncc4c(Br)nn(-c5cc(F)c6ncccc6c5)c4n3)C2)CN1
30 | < 25 nM | CC(C)(NC(=O)[C@@H]1CC[C@@H](Nc2ncc3c(Br)nn(-c4cc(C#N)c5ncccc5c4)c3n2)C1)C(N)=O
31 | < 25 nM | CNC(=O)[C@]1(C)CC[C@@H](Nc2ncc3c(Br)nn(-c4ccc5nc(OC)ncc5c4)c3n2)C1 [(1R,3R)-3-[[3-bromo-1-(2-methoxy-quinazolin-6-yl)pyrazolo[3,4-d]pyrimidin-6-yl]amino]-N,1-dimethyl-cyclopentane-carboxamide; 2,2,2-trifluoroacetic acid]
